Data from ChEMBL document CHEMBL4765279, “Discovery of a novel series of imidazo[1',2':1,6]pyrido[2,3-d]pyrimidin derivatives as potent cyclin-dependent kinase 4/6 inhibitors” (Eur J Med Chem, 2020).

Assays:
[1] = AUC (0 to t) in Sprague-Dawley rat at 3 mg/kg, iv by LC-MS/MS analysis; type: ADME, organism-based; design: dose 3 mg/kg; conditions: in vivo
[2] = biological target: Cyclin-dependent kinase 1/cyclin B1 (Homo sapiens, UniProt P06493)
Description: Inhibition of CDK1/cyclin B (unknown origin)

[3] = Oral bioavailability in Sprague-Dawley rat at 6 mg/kg by LC-MS/MS analysis; type: ADME, organism-based; conditions: in vivo
CDK9/cyclin T1 = CDK9/cyclin T1 (Homo sapiens, UniProt P50750)
Chain of CDK9/cyclin T1 (O60563 whole entry): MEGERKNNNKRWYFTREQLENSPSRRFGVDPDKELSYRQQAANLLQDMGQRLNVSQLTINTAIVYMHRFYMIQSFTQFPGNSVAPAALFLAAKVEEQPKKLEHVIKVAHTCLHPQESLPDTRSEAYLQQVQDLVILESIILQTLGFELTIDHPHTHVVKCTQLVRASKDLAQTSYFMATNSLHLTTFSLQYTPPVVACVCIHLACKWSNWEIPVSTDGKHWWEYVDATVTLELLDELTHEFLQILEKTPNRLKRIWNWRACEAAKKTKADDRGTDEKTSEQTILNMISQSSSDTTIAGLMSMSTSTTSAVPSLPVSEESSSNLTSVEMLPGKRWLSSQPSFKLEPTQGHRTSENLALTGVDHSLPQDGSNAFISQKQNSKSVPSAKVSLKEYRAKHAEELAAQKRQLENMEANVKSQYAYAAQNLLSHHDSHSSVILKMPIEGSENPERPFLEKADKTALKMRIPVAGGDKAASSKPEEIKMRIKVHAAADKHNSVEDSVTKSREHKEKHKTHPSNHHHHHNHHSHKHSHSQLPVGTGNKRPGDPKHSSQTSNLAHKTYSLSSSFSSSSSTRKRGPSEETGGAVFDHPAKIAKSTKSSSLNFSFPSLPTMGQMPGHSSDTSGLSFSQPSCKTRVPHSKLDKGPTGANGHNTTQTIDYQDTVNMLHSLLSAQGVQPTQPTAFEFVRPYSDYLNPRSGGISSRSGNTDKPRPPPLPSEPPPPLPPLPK
Chain of CDK9/cyclin T1 (P50750 whole entry): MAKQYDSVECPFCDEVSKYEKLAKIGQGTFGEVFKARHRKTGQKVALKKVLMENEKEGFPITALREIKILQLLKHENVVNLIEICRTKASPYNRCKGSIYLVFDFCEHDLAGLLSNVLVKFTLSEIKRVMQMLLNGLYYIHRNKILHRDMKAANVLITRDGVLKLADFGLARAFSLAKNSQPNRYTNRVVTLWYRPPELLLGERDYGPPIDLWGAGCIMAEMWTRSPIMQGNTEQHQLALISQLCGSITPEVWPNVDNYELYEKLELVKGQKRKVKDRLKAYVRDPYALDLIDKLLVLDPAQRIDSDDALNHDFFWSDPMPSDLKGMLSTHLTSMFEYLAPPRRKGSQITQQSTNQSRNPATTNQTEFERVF
Description: Inhibition of CDK9/cyclin T1 (unknown origin)

[4] = Half life in BALB/c mouse at 10 mg/kg, po by LC-MS/MS analysis; type: ADME, organism-based; conditions: in vivo
CYP2C9 = CYP2C9 (Homo sapiens, UniProt P11712); experiment: Inhibition of CYP2C9 in human liver microsomes at 10 uM measured after 20 mins in presence of NADPH by LC-MS/MS analysis relative to control; type: ADME
Chain of CYP2C9 (P11712 whole entry, the tested form may be a part): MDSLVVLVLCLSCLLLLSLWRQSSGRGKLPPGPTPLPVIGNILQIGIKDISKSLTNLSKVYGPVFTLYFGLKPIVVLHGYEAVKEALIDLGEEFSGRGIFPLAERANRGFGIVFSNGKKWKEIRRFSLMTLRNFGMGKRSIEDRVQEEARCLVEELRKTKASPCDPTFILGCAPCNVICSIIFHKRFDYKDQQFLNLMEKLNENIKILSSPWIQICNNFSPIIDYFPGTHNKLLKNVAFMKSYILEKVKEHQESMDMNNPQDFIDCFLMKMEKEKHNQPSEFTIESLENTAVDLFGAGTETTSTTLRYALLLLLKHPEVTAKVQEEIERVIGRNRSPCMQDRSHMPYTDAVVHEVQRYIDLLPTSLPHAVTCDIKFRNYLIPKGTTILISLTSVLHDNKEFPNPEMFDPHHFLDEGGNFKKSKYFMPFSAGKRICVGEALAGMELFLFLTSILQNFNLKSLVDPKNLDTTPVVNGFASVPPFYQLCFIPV

CDK6/Cyclin D3 = CDK6/Cyclin D3 (Homo sapiens, UniProt Q00534); experiment: Inhibition of human full-length N-terminal GST tagged CDK6 (1 to 326 residues)/GST-tagged cyclinD3 (1 to 292 residues) expressed in baculovirus expression system using ULight-elF4E-binding protein 1 peptide as substrate measured after 30 mins by LANCE assay
Chain of CDK6/Cyclin D3 (Q00534 whole entry, looked up, the tested form may be a part): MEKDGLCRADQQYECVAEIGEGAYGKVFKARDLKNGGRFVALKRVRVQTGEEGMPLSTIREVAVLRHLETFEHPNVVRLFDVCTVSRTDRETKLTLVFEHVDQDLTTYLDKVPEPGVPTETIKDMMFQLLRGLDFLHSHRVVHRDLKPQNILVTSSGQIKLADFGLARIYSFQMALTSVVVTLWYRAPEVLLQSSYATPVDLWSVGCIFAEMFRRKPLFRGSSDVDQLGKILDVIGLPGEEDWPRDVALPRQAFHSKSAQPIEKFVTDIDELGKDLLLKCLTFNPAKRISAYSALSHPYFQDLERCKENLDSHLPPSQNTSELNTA

[5] = AUC (0 to t) in BALB/c mouse at 3 mg/kg, iv by LC-MS/MS analysis; type: ADME, organism-based; design: dose 3 mg/kg; conditions: in vivo
COLO 205 = experiment: Antitumor activity against human COLO 205 cells xenografted in BALB/c mouse assessed as tumor growth inhibition at 3 mg/kg, po qd for 11 days relative to control; type: functional; conditions: COLO 205, po, time 11 day, read-out: TGI
[6] = Intrinsic clearance in human liver microsomes at 1 uM preincubated for 10 mins followed by NADPH addition and measured after 1 hr by LC-MS/MS analysis; type: ADME, Microsome; conditions: time 70 min, read-out: CLH
CYP1A2 = biological target: T1, CYP1A2 (Homo sapiens, UniProt P05177); experiment: Inhibition of CYP1A2 in human liver microsomes at 10 uM measured after 20 mins in presence of NADPH by LC-MS/MS analysis relative to control; type: ADME
T1 sequence (P05177 whole entry): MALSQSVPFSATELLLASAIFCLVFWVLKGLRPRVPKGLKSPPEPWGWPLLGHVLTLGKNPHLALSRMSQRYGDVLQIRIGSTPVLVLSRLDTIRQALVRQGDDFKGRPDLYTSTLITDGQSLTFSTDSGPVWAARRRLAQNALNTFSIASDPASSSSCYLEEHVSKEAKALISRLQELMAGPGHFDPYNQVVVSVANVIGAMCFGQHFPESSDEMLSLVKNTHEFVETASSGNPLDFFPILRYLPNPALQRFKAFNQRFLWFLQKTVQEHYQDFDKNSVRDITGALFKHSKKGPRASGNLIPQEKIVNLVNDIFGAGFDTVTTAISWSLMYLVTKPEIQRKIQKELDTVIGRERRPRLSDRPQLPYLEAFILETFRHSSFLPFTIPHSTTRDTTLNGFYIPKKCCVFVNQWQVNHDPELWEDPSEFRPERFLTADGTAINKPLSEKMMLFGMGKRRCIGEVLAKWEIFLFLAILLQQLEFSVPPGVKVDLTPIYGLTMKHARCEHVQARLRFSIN

Cytochrome P450 1A2 = biological target: T2, Cytochrome P450 1A2 (Homo sapiens, UniProt P05177); experiment: Time-dependent inhibition of CYP1A2 in human liver microsomes at 10 uM in presence of NADPH by LC-MS/MS analysis; type: ADME
T2 sequence (P05177 whole entry): T1 sequence (P05177 whole entry)

[7] = Intrinsic clearance in rat liver microsomes at 1 uM preincubated for 10 mins followed by NADPH addition and measured after 1 hr by LC-MS/MS analysis; type: ADME, Microsome; conditions: time 70 min, read-out: CLH
[8] = biological target: Cyclin-dependent kinase 7/ cyclin H (Homo sapiens, UniProt P50613); experiment: Inhibition of CDK7/cyclin H (unknown origin); type: protein-complex assay
Chain of Cyclin-dependent kinase 7/ cyclin H (P51946 whole entry): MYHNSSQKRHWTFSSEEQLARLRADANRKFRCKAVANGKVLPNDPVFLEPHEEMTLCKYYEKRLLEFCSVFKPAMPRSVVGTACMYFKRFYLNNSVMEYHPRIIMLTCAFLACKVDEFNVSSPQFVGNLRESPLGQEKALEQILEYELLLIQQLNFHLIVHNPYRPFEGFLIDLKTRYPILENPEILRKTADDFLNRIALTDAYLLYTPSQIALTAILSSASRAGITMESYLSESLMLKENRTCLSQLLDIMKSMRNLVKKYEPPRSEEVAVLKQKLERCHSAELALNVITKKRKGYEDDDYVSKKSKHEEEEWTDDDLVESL
Chain of Cyclin-dependent kinase 7/ cyclin H (P50613 whole entry): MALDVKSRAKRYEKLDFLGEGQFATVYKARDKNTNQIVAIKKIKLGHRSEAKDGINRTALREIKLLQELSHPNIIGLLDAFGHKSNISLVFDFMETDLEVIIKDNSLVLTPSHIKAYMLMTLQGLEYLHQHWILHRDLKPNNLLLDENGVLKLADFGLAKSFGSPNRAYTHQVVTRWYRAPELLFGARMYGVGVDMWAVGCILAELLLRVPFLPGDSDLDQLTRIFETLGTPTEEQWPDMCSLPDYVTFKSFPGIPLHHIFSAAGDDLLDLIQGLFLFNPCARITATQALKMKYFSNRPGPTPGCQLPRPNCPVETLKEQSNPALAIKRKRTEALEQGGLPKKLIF

U-87 MG = experiment: Antitumor activity against human U-87 MG cells xenografted in BALB/c mouse assessed as tumor growth at 10 mg/kg, po qd for 16 days relative to control; type: functional, U-87MG ATCC; conditions: time 16 day

Chain of Cyclin-dependent kinase 1/cyclin B1 (P06493 whole entry): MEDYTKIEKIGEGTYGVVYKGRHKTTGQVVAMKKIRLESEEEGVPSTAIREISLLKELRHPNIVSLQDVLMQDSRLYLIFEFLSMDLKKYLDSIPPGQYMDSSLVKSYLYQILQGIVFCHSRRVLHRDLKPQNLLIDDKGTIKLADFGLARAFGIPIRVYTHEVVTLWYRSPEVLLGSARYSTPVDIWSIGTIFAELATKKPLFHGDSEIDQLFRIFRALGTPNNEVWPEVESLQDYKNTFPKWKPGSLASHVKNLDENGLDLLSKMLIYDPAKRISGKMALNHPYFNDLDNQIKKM
Chain of Cyclin-dependent kinase 1/cyclin B1 (P14635 whole entry, further chain): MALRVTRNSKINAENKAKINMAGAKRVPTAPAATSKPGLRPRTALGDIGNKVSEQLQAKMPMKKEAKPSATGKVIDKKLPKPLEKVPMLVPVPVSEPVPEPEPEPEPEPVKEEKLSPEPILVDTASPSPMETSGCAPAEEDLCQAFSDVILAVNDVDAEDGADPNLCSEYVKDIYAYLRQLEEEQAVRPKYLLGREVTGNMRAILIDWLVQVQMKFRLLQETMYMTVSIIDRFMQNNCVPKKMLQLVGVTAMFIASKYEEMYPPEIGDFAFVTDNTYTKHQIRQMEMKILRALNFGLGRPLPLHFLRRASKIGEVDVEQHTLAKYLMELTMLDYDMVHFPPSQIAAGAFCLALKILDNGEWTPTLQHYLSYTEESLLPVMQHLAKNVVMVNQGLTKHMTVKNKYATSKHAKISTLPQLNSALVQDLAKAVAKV

CC(=O)c1c(C)c2cnc(Nc3ccc(N4CCNCC4)cc3)nc2n2cc(C(C)C)nc12
AUCt [1]: 861 ng·h/mL
IC50 [2]: 0.309 µM
bioavailability [3]: 65.2%
IC50 (CDK9/cyclin T1): 0.0234 µM
half-life [4]: 4.08 h
inhibition at […], 10 µM (CYP2C9): 11%
IC50 (CDK6/Cyclin D3): 0.002 µM
AUCt [5]: 472 ng·h/mL
inhibition in vivo at 3 mg/kg (COLO 205): 63%
microsomal CLint at 1 µM [6]: 6 µL/min/mg
inhibition at […], 10 µM (CYP1A2): 17%
TDI (Cytochrome P450 1A2): Not Active
microsomal CLint at 1 µM [7]: 54 µL/min/mg
IC50 [8]: 0.0947 µM
T/C (U-87 MG): 53%
